Data set [1] deals with T1, NOCT (122-431), catalytic domain of human NOCT (Homo sapiens, UniProt Q9UK39).
T1 construct: catalytic domain, residues 122-431; E. coli BL21 (DE3)-CodonPlus RIPL, pGEX-6P, GST tag removed with Prescission protease
T1 sequence (Q9UK39 122-431): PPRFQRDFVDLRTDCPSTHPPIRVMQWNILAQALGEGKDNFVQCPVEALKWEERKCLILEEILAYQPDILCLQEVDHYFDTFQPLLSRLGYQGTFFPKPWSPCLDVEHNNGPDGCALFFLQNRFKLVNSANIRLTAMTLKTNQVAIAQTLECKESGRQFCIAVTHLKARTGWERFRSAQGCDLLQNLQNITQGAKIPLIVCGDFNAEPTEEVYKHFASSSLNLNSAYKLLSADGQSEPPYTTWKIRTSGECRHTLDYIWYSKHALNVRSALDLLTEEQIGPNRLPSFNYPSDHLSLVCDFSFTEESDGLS
As to the kind of experiment: LC-MS/MS product detection. The following applies: 10 μM enzyme, 1 h at r.t. Type of data set: biochemical.

The target of data set [2] is T2, Curled (NOCT ortholog), full-length, Curled 1-419 (Drosophila melanogaster, UniProt A8JQX3).
T2 construct: gene cu; full length 1-419 of splicing form H; E. coli, pGEX-6P, GST tag removed with Prescission protease
T2 sequence (A8JQX3 224-642): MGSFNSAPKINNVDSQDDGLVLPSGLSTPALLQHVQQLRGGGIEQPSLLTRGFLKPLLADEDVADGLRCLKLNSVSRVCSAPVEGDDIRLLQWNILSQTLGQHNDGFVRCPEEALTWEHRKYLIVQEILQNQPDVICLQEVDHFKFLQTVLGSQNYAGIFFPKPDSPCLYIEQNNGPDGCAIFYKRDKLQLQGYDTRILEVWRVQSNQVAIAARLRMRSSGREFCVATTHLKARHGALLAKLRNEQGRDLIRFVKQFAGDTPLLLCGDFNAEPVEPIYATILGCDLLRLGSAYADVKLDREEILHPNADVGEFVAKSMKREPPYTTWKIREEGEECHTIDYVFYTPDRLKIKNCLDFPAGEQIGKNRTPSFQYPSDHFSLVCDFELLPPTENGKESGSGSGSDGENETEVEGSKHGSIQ
As to the kind of experiment: ion-exchange chromatography, UV […] nm. The data set is classed as biochemical. The following applies: 22 °C, 20 mM Tris-HCl pH 8.0, 70 mM NaCl, 2 mM MgCl2.

For data set [3], the target named is T3, full-length (FL) human NOCT (Homo sapiens, UniProt Q9UK39).
T3 construct: E. coli, pGEX-6P, GST tag removed with Prescission protease
T3 sequence (Q9UK39 1-431): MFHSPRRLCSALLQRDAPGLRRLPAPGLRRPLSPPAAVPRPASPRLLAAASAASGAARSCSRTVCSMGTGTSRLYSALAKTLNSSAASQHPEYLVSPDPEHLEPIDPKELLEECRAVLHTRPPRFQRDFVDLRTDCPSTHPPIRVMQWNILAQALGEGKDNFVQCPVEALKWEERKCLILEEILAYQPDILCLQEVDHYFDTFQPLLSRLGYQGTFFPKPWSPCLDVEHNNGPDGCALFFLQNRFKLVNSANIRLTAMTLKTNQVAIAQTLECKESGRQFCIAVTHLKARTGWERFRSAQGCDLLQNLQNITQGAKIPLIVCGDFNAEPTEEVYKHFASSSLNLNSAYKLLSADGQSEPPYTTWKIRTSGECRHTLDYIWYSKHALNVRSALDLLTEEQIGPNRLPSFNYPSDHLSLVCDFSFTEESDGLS
As to the kind of experiment: ion-exchange chromatography, UV […] nm. The data set is classed as biochemical. The following applies: 22 °C, 20 mM Tris-HCl pH 8.0, 70 mM NaCl, 2 mM MgCl2; 1 mM substrate, 0.5 μM enzyme.

Substrate in the data set “purified protein”: NC(=O)C1=CN([C@@H]2O[C@H](COP(=O)(O)OP(=O)(O)OC[C@H]3O[C@@H](n4cnc5c(N)ncnc54)[C@H](OP(=O)(O)O)[C@@H]3O)[C@@H](O)[C@H]2O)C=CC1
As to the kind of experiment: purified protein. The following applies: 22 °C, 20 mM Tris-HCl pH 8.0, 70 mM NaCl.

The record followed here is publication PMC6542800 (Nature Communications, 2019).

`NC(=O)c1ccc[n+]([C@@H]2O[C@H](COP(=O)(O)OP(=O)(O)OC[C@H]3O[C@@H](n4cnc5c(N)ncnc54)[C@H](OP(=O)(O)O)[C@@H]3O)[C@@H](O)[C@H]2O)c1` [NADP^+]: the LC-MS/MS product detection result in data set [1] was “converted NADPH into NADH and NADP^+ into NAD^+ (Fig. 1c)”. In addition, the “ion-exchange chromatography, UV 260 nm” value was “Curled cleaved both NADP^+ and NADPH, exhibiting a preference for NADPH” in data set [2]; “conversion of both NADP^+ and NADPH into NAD^+ and NADH, respectively by full-length (FL) NOCT” in data set [3].
`NC(=O)C1=CN([C@@H]2O[C@H](COP(=O)(O)OP(=O)(O)OC[C@H]3O[C@@H](n4cnc5c(N)ncnc54)[C@H](OP(=O)(O)O)[C@@H]3O)[C@@H](O)[C@H]2O)C=CC1` [NADPH]: the “ion-exchange chromatography, UV 260 nm” value in data set [2] (1 mM substrate, 500 nM enzyme) is recorded as “In contrast, Curled readily cleaved NADPH (Fig. 5c; Supplementary Fig. 5b)”.

B1: NOCT (122-431), catalytic domain of human NOCT (Homo sapiens) (protein)
chain: T1 sequence (Q9UK39 122-431)
As a reminder, the kcat is the maximal rate divided by the concentration of active sites. Consider B1, for which the kcat in the data set “purified protein” (2 mM MgCl2, 4.8 μM enzyme, printed range may span catalytic domain and full-length protein) stood at 3.6 s⁻¹.

B2: full-length (FL) human NOCT (Homo sapiens) (protein)
chain: T3 sequence (Q9UK39 1-431)
B2: in “purified protein” (2 mM MgCl2, printed range may span catalytic domain and full-length protein), the turnover number (kcat) worked out at 34 s⁻¹.
